# Measured values taken from patent US10933077B2, “TLR4 inhibitors for the treatment of human infectious and inflammatory disorders” (UNIVERSITY OF PITTSBURGH—OF THE COMMONWEALTH SYSTEM OF …, priority 2010, dated 2021).
# Assays:
# TLR4 mRNA = experiment: CFW-NEC mouse model (formula feeding), TLR4 mRNA levels; assay type: in vivo; conditions: 1 mg/kg, i.p. once daily for the first four days of the five day model
# Excerpt: (§1) Inducible nitric oxide synthase (iNOS) is associated with necrotizing enterocolitis (NEC) in human infants. In a second set of experiments, the CFW-NEC mouse model system for NEC was used to evaluate the effect of various compounds from TABLES 1 and 2 above on iNOS mRNA levels. A model system for NEC was induced in newborn mouse pups by formula feeding, where control animals were breast-fed (Sodhi et al., 2010, Gastroenterol. 138(1):185-196; Richardson et al., 2010, Gastroenterol. 139(3):904-917). […] Note that RPLO stands for 505 ribosomal subunit protein L15, an acknowledged housekeeping gene, which means that it is a constitutive gene expressed at relatively constant levels by all cells and is thus used as a reference for comparing other genes which may vary under experimental conditions. In this same model system, levels of TLR4 mRNA levels were also evaluated. […] In contrast, the level of TLR4 was not increased in FF animals treated with C34 (1 mg/kg, i.p. once daily for the first four days of the five day model) and indeed mRNA levels were 30 percent below normal (see FIG. 14).
# iNOS mRNA [1] = experiment: Human NEC tissue explants treated with LPS, iNOS mRNA; assay type: cell-based; conditions: C34 10 uM, 30 minutes pretreatment; LPS 25 ug/ml, 37° C., 3 hours
# Method: (§2) The effect of C34 was then tested on explants of human NEC tissue. These explants were obtained from human infants suffering from NEC and were prepared from NEC-affected portions of the intestine. When explants were treated with LPS (25 ug/ml, 37° C., 3 hours) the level of TNFα mRNA (FIG. 12) and iNOS mRNA (FIG. 13) increased precipitously.
# [2] = Murine hemorrhagic shock (H/S) model, serum AST and ALT (liver damage); assay type: in vivo, mice; conditions: 1 mg/kg, i.p. divided in two doses (30 minutes prior to H/S and immediately prior to resuscitation); versus PBS
# Method: An experiment was performed to test the effect of TLR4 inhibitors and C34 in particular on the tissue damage associated with hemmorhagic shock. A murine model was used in which, under sterile conditions and anesthesia induced using i.p. sodium pentobarbital (20 mg/kg), a left groin exploration was performed, and the left femoral artery was cannulated with tapered polyethylene (PE)-10 tubing and connected to a blood pressure transducer for continuous mean arterial pressure (MAP) monitoring for the duration of the experiment (6 h) as described in Sodhi, et al., 2011, Am. J. Physiol. Gastrointest. Liver Physiol. 300(5):G862-G873. To induce hemorrhagic shock, blood was withdrawn to allow the mean arterial pressure to drop to 25 mmHg over 5 minutes, and the blood pressure was maintained at this level for 150 min. The mice were then resuscitated over 10 min with lactated Ringer's solution. Sham-operated mice underwent anesthesia and femoral cannulation only. In this model system, the extent of liver damage is reflected in increased serum levels of aspartate aminotransferase (AST) and alanine transaminase (ALT).
# [3] = system: LPS-induced NFkB activation; experiment: NFkB-luciferase reporter mice assay (LPS-induced endotoxemia); assay type: in vivo; conditions: LPS 2 mg/kg plus compound 1 mg/kg i.p.
# Method: Compound preparation and delivery. All 65 identified compounds were received in solid form and stored at 4° C. until use. Stock solutions of each compound were made by dissolving the appropriate amount of each compound in dimethyl sulfoxide (DMSO) to yield a concentration of 10 mM. Immediately prior to injection into experimental animals, the compounds were diluted to an experimental concentration of 100 uM in phosphate-buffered saline (PBS). Total concentration of DMSO in the final diluted drug was 1%. Compounds were closely examined to insure that no precipitate formed prior to injection and were stored on ice until injection. All compounds were given via intraperitoneal (i.p.) injection in a total volume of 200 ul using a 1 cc syringe and 27 gauge needle. In all experiments listed below, the compounds were delivered to the experimental mice 30 minutes prior to injection with lipopolysaccharide (LPS) to induce endotoxemia. Control animals not receiving compound received 1% DMSO dissolved in PBS. Following drug injection, the mice were observed closely in their cages for signs of immediate toxicity or adverse reaction to the drug, including but not limited to piloerection, tachypnea, bleeding, abnormal or aggressive behavior, signs of altered mental status, and level of activity.
# Induction of endotoxemia. All mice were housed and cared for at the Rangos Research Center, Children's Hospital of Pittsburgh (Pittsburgh, Pa.). All experiments were approved by the Children's Hospital of Pittsburgh Animal Care Committee and by the Institutional Review Board of the University of Pittsburgh. Swiss Webster (CFW) and NFkB-luciferase reporter mice were obtained from The Jackson Laboratory. Throughout the course of all experiments, mice were housed 4 per cage with access to food, water, and standard bedding. Endotoxemia was induced in all experiments by i.p. injection of LPS (Escherichia coli 0111:B4 purified by gel filtration chromatography, >99% pure, Sigma-Aldrich) at a dose of 2 mg/kg for 6 hours. At the end of each experiment, all animals were euthanized by CO2 hypoxia and cervical dislocation.
# NFkB-luciferase reporter mice assay. NFkB-luciferase reporter mice, in which the […], were subjected to endotoxemia with or without pretreatment with experimental compounds. The experimental compounds treated by this assay were compounds 1-6, with compounds 1-3 tested first and compounds 4-6 tested later. For both experiments, the mice were 6 weeks old on the date of the experiment. […] After whole body imaging, an additional injection of luciferin is given and animals were euthanized, organs were harvested, and the extent of NFkB activation within various tissues was further analyzed by an additional luminescence image of the individual organs. […]
# iNOS mRNA [4] = experiment: CFW-NEC mouse model (formula feeding), iNOS mRNA levels; assay type: in vivo; conditions: 1 mg/kg, i.p., once daily for the first four days of the five day model; relative to RPLO
# Excerpt: as §1
# TNFα mRNA = experiment: Human NEC tissue explants treated with LPS, TNFα mRNA; assay type: cell-based; conditions: C34 10 uM, 30 minutes pretreatment; LPS 25 ug/ml, 37° C., 3 hours
# Method: as §2
structure (smiles),measurement,setting,value
"CC(=O)NC1C(OC(C)C)OC(COC(C)=O)C(OC(C)=O)C1OC(C)=O (centres unmarked) [Compound 34, isopropyl 3,4,6-tri-O-acetyl-2-(acetylamino)-2-deoxyhexopyranoside]",level of TLR4 mRNA in FF animals,TLR4 mRNA,not increased
same,TLR4 mRNA levels below normal,TLR4 mRNA; FF animals,30%
same,LPS-induced increase of iNOS mRNA,iNOS mRNA [1],substantially reduced
same,increase in serum ALT in H/S animals,[2],inhibited the increases
same,increase in serum AST in H/S animals,[2],inhibited the increases in AST
same,NFκB signalling (luciferase imaging),[3],reduced NFκB signalling
same,increase of iNOS mRNA level in formula-fed (FF) pups,iNOS mRNA [4],almost eliminated
same,LPS-induced increase of TNFα mRNA,TNFα mRNA,substantially reduced
